Results: patent publication US9061984B2 (University of Louisville Research Foundation, Inc., priority 2008, dated 2015)
pIC50: −log10 of the molar value. Converted amounts (≈) assume the structure as drawn. “And” between values parts separate entries of the source, which are not always exact repeats. Identical values can stand only once.

Experiments:
[1] = tested on: Trypanosoma cruzi (Tulahuen C4); assay: In vitro anti-T. cruzi activity (β-galactosidase CPRG colorimetric assay in VERO monolayer); assay type: cell-based; settings: for pIC50: Table 3, read-out: IC50 T. cruzi
M-14 cells = assay: Cell growth inhibition bioassay (sulforhodamine B); assay type: cell-based, human; settings: 48 h, SRB; for GI50: Homo sapiens, M14, read-out: GI50 in indicated cell line: M-14
Method in brief: (§1)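 Cells were exposed to compound alongside matched solvent controls, then stained with sulforhodamine B. Percent growth inhibition was calculated from dye absorbance against the control.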

HT-29 cells = assay: Cell growth inhibition bioassay (sulforhodamine B); assay type: cell-based, human; settings: 48 h, SRB; for GI50: Homo sapiens, HT-29, read-out: GI50 in indicated cell line: HT-29
Method in brief: as §1

MCF-7 cells = assay: Cell growth inhibition bioassay (sulforhodamine B); assay type: cell-based, human; settings: 48 h, SRB; for GI50: Homo sapiens, MCF7, read-out: GI50 in indicated cell line: MCF-7
Method in brief: (§2)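 Human cancer cells (MCF-7 breast, DU145 and PC3 prostate, H460 large cell lung) were treated with compounds. Growth relative to solvent control was quantified by SRB protein stain.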

K562 cells = assay: Cell growth inhibition bioassay (sulforhodamine B); assay type: cell-based, human; settings: 48 h, SRB; for GI50: Homo sapiens, K562, read-out: GI50 in indicated cell line: K562
Method in brief: as §1

H460 cells = assay: Cell growth inhibition bioassay (sulforhodamine B); assay type: cell-based, human; settings: 48 h, SRB; for GI50: Homo sapiens, NCI-H460, read-out: GI50 in indicated cell line: H460
Method in brief: as §2

DU145 cells = assay: Cell growth inhibition bioassay (sulforhodamine B); assay type: cell-based, human; settings: 48 h, SRB; for GI50: Homo sapiens, DU-145, read-out: GI50 in indicated cell line: DU145
Method in brief: as §2

3T3 cells = assay: Cell growth inhibition bioassay (sulforhodamine B); assay type: cell-based, mouse; settings: 48 h, SRB; for GI50: Mus musculus, NIH3T3, read-out: GI50 in indicated cell line: 3T3
Method in brief: as §1

PC3 cells = assay: Cell growth inhibition bioassay (sulforhodamine B); assay type: cell-based; settings: Homo sapiens, PC-3; 48 h, SRB; read-out: GI50 in indicated cell line: PC3
Description: The cytotoxicity of compounds was assayed as follows. […] Appropriate solvent controls were tested for comparison. The percent inhibition of cell growth relative to the control was evaluated colorimetrically using a sulforhodamine B dye by comparison to the control. The calorimetric procedure followed that published in Skehan et al., J. Nat. Cancer Inst., […], pp. 1107-1112 (1990) and Boyd & Paull, Drug Dev. Res., Vol. 34, pp. 91-109 (1995). […] The cell lines are: 3T3 cells are BALB/3T3 clone A31 embryonic mouse fibroblast cells; H460 cells are human large cell lung cancer cells; DU145 cells are human prostate carcinoma cells; MCF-7 cells are human breast adenocarcinoma cells; M-14 cells are human melanoma cells; HT-29 cells are human colon adenocarcinoma cells; PC3 cells are human prostate adenocarcinoma cells; K562 cells are human chronic myelogenous leukemia cells; and VERO cells are African Green Monkey kidney epithelial cells.

[2] = tested on: axenic amastigotes of L. amazonensis (strain MHOM/BR/76/LTB-012); settings: read-out: L. amazonensis IC50; Table 8b
VERO cells [3] = assay: Cell growth inhibition bioassay (sulforhodamine B); assay type: cell-based, African Green Monkey; settings: 48 h, SRB
Method in brief: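 Cytotoxicity is read by sulforhodamine B colorimetry following the Skehan protocol; values are growth inhibition relative to solvent-only wells.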

VERO cells [4] = tested on: VERO cells
M. tuberculosis H37Rv = assay: Conventional aerobic (MABA) culture assay, luminescence MIC; assay type: cell-based, Mycobacterium tuberculosis
peritoneal macrophages = assay: Toxicity to peritoneal macrophages (Trypan Blue count); assay type: cell-based, BALB/C mouse
in vitro = settings: African green monkey
[5] = 10 μg/mL of each compound, 120 hours
[6] = Trypanosoma cruzi, TULAHUEN, Vero

Row | Compound | melting point | T. cruzi Inhib. (%) [1, 5] | pIC50 [1, 6] | GI50 (M-14 cells) | GI50 (HT-29 cells) | GI50 (MCF-7 cells) | GI50 (K562 cells) | GI50 (H460 cells) | GI50 (DU145 cells) | GI50 (3T3 cells) | GI50 (PC3 cells) | further results
1 | COc1ccc(CCC(=O)c2c(O)cc(O)cc2OC)cc1 [Compound I-07, 1-(2,4-Dihydroxy-6-methoxyphenyl)-3-(4-methoxyphenyl)-1-propanone] | 166 °C | 27.74% | < 4.60 | 109 µM | > 206 µM | 65.5 µM | 22.8 µM | 128 µM | > 206 µM | > 206 µM | 59.9 µM | inhibition at 10 µg/mL ([1]; Trypanosoma cruzi, TULAHUEN, Vero, 120 h, 10 μg/mL of each compound, 120 hours, read-out: T. cruzi Inhib. (%)): 20.5%
2 | COc1cc(O)c(C(=O)CCc2ccc3c(c2)OCO3)c(OC)c1 [Compound I-04, 3-(1,3-Benzodioxol-5-yl)-1-(2-hydroxy-4,6-dimethoxyphenyl)-1-propanone] | 125 °C | 12.96% and 3.24% | < 4.00 | 82 µM | 145 µM | 42.4 µM | 28.2 µM | 105 µM | 60.2 µM | 21.5 µM | 39.1 µM | 
3 | CC(C)=NNc1ncnc2sc3c(c12)CCCC3 [II-44] |  |  |  |  |  |  |  |  |  |  |  | T. cruzi IC50 Lab A ([1]; Lab A): 3.2 µg/mL; T. cruzi IC50 Lab B ([1]; Lab B): 3.7 µg/mL; GI50 in indicated cell line: M-14 (M-14 cells): 6.1 µg/mL (≈ 23.4 µM); GI50 in indicated cell line: HT-29 (HT-29 cells): 8.6 µg/mL (≈ 33 µM); GI50 in indicated cell line: MCF-7 (MCF-7 cells): 3.2 µg/mL (≈ 12.3 µM); GI50 in indicated cell line: K562 (K562 cells): 3.5 µg/mL (≈ 13.4 µM); GI50 in indicated cell line: H460 (H460 cells): 2.4 µg/mL (≈ 9.22 µM); GI50 in indicated cell line: DU145 (DU145 cells): 3.0 µg/mL (≈ 11.5 µM); GI50 in indicated cell line: 3T3 (3T3 cells): <0.98 µg/mL; pIC50 [2]: 4.97; GI50 in indicated cell line: VERO (VERO cells [3]): 3.7 µg/mL (≈ 14.2 µM); Cytotoxicity VERO Lab B (VERO cells [4]): 10.0; MIC MABA (M. tuberculosis H37Rv; aerobic, 7 days, H37Rv): 62.4 µg/mL (≈ 240 µM); pIC50 (peritoneal macrophages): 4.21; Cytotoxicity VERO cell (VERO cell): 32.7 µg/mL
4 | CO[C@H]1/C=C/O[C@@]2(C)Oc3c(C)c(O)c4c(O)c(c(/C=N/N5CCN(C)CC5)c(O)c4c3C2=O)NC(=O)/C(C)=C\C=C\[C@H](C)[C@H](O)[C@@H](C)[C@@H](O)[C@@H](C)[C@H](OC(C)=O)[C@@H]1C [Rifampin, reference compound] |  |  |  |  |  |  |  |  |  |  |  | IC50 (in vitro): 97.2 µg/mL (≈ 118 µM); MIC (M. tuberculosis H37Rv; Mycobacterium tuberculosis, 168 h, aerobic, 7 days, H37Rv): 0.09 µg/mL (≈ 0.109 µM); Selectivity Index H37Rv (M. tuberculosis H37Rv; VERO vs MABA MIC): 1025.8
